Patent US20220274954A1, “SUBSTITUTED N-PHENYL-N-AMINOUARCILS AND SALTS THEREOF AND USE THEREOF AS HERBICIDAL AGENTS” (Bayer Aktiengesellschaft, priority 2019, published 2022)

How the values were obtained:
Type in all cases: in vivo
Abutilon theophrasti = assay: Post-emergence herbicidal action
Experimental: (§1) Seeds of monocotyledonous and dicotyledonous weeds and crop plants were placed in sandy loam in plastic or wood-fiber pots, covered with soil and cultivated in a greenhouse under controlled growth conditions. 2 to 3 weeks after sowing, the test plants were treated at the one-leaf stage. The compounds of the invention, formulated in the form of wettable powders (WP) or as emulsion concentrates (EC), were then sprayed onto the green parts of the plants as aqueous suspension or emulsion with addition of 0.5% additive at a water application rate of […] (converted). After the test plants had been kept in the greenhouse under optimum growth conditions for about 3 weeks, the activity of the preparations was rated visually in comparison to untreated controls. For example, 100% activity=the plants have died, 0% activity=like control plants. Tables A1 to A14 below show the effects of selected compounds of the general formula (I) according to Tables I.1 to I.34 on various harmful plants and at an application rate corresponding to 20 g/ha and less, which were obtained by the experimental procedure mentioned above.

Alopecurus myosuroides = assay: Post-emergence herbicidal action
Experimental: as §1

Amaranthus retroflexus = assay: Post-emergence herbicidal action
Experimental: as §1

Avena fatua = assay: Post-emergence herbicidal action; settings: application rate 20 g/ha
Experimental: as §1

Echinochloa crus-galli = assay: Post-emergence herbicidal action
Experimental: as §1

Lolium rigidum = assay: Post-emergence herbicidal action; settings: application rate 20 g/ha
Experimental: as §1

Matricaria inodora = assay: Post-emergence herbicidal action
Experimental: as §1

Pharbitis purpurea = assay: Post-emergence herbicidal action
Experimental: as §1

Veronica persica = assay: Post-emergence herbicidal action
Experimental: as §1

Viola tricolor = assay: Post-emergence herbicidal action
Experimental: as §1

Oryza sativa = assay: Post-emergence crop plant compatibility
Experimental: as §1, with “plants.” for “plants. Tables A1 to A14 below show the effects of selected compounds of the general formula (I) according to Tables I.1 to I.34 on various harmful plants and at an application rate corresponding to 20 g/ha and less, which were obtained by the experimental procedure mentioned above.”
(§2) Here, the observed effects on selected crop plants are stated in comparison to the untreated controls (values in %).

Triticum aestivum = assay: Post-emergence crop plant compatibility
Experimental: as §1, with “plants.” for “plants. Tables A1 to A14 below show the effects of selected compounds of the general formula (I) according to Tables I.1 to I.34 on various harmful plants and at an application rate corresponding to 20 g/ha and less, which were obtained by the experimental procedure mentioned above.”
as §2

Zea mays = assay: Post-emergence crop plant compatibility; settings: application rate 5 g/ha
Experimental: as §1, with “plants.” for “plants. Tables A1 to A14 below show the effects of selected compounds of the general formula (I) according to Tables I.1 to I.34 on various harmful plants and at an application rate corresponding to 20 g/ha and less, which were obtained by the experimental procedure mentioned above.”
as §2

Polygonum convolvulus = assay: Post-emergence herbicidal action; settings: Fallopia convolvulus, 504 h, read-out: Polygonum convolvulus (efficacy in %)
Experimental: as §1

Setaria viridis = assay: Post-emergence herbicidal action; settings: 504 h, read-out: Setaria viridis (efficacy in %)
Experimental: as §1

Stellaria media = assay: Post-emergence herbicidal action
Experimental: as §1

Brassica napus = assay: Post-emergence crop plant compatibility
Experimental: as §1, with “plants.” for “plants. Tables A1 to A14 below show the effects of selected compounds of the general formula (I) according to Tables I.1 to I.34 on various harmful plants and at an application rate corresponding to 20 g/ha and less, which were obtained by the experimental procedure mentioned above.”
as §2

Glycine max = assay: Post-emergence crop plant compatibility
Experimental: as §1, with “plants.” for “plants. Tables A1 to A14 below show the effects of selected compounds of the general formula (I) according to Tables I.1 to I.34 on various harmful plants and at an application rate corresponding to 20 g/ha and less, which were obtained by the experimental procedure mentioned above.”
as §2

Row | SMILES | Abutilon theophrasti (efficacy in %) (Abutilon theophrasti; application rate 5 g/ha) [%] | Abutilon theophrasti (efficacy in %) (Abutilon theophrasti; application rate 20 g/ha) [%] | Alopecurus myosuroides (efficacy in %) (Alopecurus myosuroides; application rate 5 g/ha) [%] | Alopecurus myosuroides (efficacy in %) (Alopecurus myosuroides; application rate 20 g/ha) [%] | Amaranthus retroflexus (efficacy in %) (Amaranthus retroflexus; application rate 5 g/ha) [%] | Amaranthus retroflexus (efficacy in %) (Amaranthus retroflexus; application rate 20 g/ha) [%] | Echinochloa crus-galli (efficacy in %) (Echinochloa crus-galli; application rate 5 g/ha) [%] | Echinochloa crus-galli (efficacy in %) (Echinochloa crus-galli; application rate 20 g/ha) [%] | Lolium rigidum (efficacy in %) (Lolium rigidum) [%] | Matricaria inodora (efficacy in %) (Matricaria inodora; application rate 5 g/ha) [%] | Matricaria inodora (efficacy in %) (Matricaria inodora; application rate 20 g/ha) [%] | Pharbitis purpurea (efficacy in %) (Pharbitis purpurea; application rate 5 g/ha) [%] | Pharbitis purpurea (efficacy in %) (Pharbitis purpurea; application rate 20 g/ha) [%] | Veronica persica (efficacy in %) (Veronica persica; application rate 5 g/ha) [%] | Veronica persica (efficacy in %) (Veronica persica; application rate 20 g/ha) [%] | Viola tricolor (efficacy in %) (Viola tricolor; application rate 5 g/ha) [%] | Viola tricolor (efficacy in %) (Viola tricolor; application rate 20 g/ha) [%] | Oryza sativa (efficacy in %) (Oryza sativa; application rate 1.25 g/ha) [%] | Triticum aestivum (efficacy in %) (Triticum aestivum; application rate 1.25 g/ha) [%] | Triticum aestivum (efficacy in %) (Triticum aestivum; application rate 5 g/ha) [%] | also measured
1 | C=CCOC(=O)COc1ncccc1Sc1cc(-n2c(=O)cc(C(F)(F)F)n(N)c2=O)c(F)cc1Cl [I.1-471] | 100 | 100 | 80 | 100 | 100 | 100 | 90 | 100 | 80 | 100 | 100 | 100 | 100 | 100 | 100 | 100 | 100 | 0 | 10 | 20 | Avena fatua (efficacy in %) (Avena fatua): 80%; Zea mays (efficacy in %) (Zea mays): 20%
2 | Nn1c(C(F)(F)F)cc(=O)n(-c2cc(Sc3cccnc3OCC(=O)O)c(Cl)cc2F)c1=O [I.1-481] | 100 | 100 | 100 | 100 | 100 | 100 | 90 | 100 | 80 | 90 | 100 | 80 | 100 | 100 | 100 | 100 | 100 | 10 | 20 | – | Oryza sativa (efficacy in %) (Oryza sativa; application rate 5 g/ha): 20%
3 | Nn1c(C(F)(F)F)cc(=O)n(-c2cc(Sc3cccnc3OCCC(=O)OCc3ccccc3)c(Cl)cc2F)c1=O [I.5-457, Benzyl 3-{[3-({5-[3-amino-2,6-dioxo-4-(trifluoromethyl)-3,6-dihydropyrimidin-1(2H)-yl]-2-chloro-4-fluorophenyl}sulfanyl)pyridin-2-yl]oxy}propanoate] | – | – | – | – | – | – | – | – | – | – | – | – | – | – | – | – | – | 0 | – | 20 | pest or weed control at 20 g/ha (Abutilon theophrasti; Abutilon theophrasti, 504 h, application rate 20 g/ha, read-out: Abutilon theophrasti (efficacy in %)): 80%; pest or weed control at 5 g/ha (Amaranthus retroflexus; Amaranthus retroflexus, 504 h, application rate 5 g/ha, read-out: Amaranthus retroflexus (efficacy in %)): 100%; pest or weed control at 20 g/ha (Echinochloa crus-galli; Echinochloa crus-galli, 504 h, application rate 20 g/ha, read-out: Echinochloa crus-galli (efficacy in %)): 80%; pest or weed control at 5 g/ha (Pharbitis purpurea; Ipomoea purpurea, 504 h, application rate 5 g/ha, read-out: Pharbitis purpurea (efficacy in %)): 90%; pest or weed control at 20 g/ha (Pharbitis purpurea; Ipomoea purpurea, 504 h, application rate 20 g/ha, read-out: Pharbitis purpurea (efficacy in %)): 90%; pest or weed control at 5 g/ha (Polygonum convolvulus; application rate 5 g/ha): 90%; pest or weed control at 20 g/ha (Polygonum convolvulus; application rate 20 g/ha): 100%; pest or weed control at 5 g/ha (Setaria viridis; application rate 5 g/ha): 100%; pest or weed control at 20 g/ha (Setaria viridis; application rate 20 g/ha): 100%; Stellaria media (efficacy in %) (Stellaria media; application rate 5 g/ha): 80%; Stellaria media (efficacy in %) (Stellaria media; application rate 20 g/ha): 100%; pest or weed control at 5 g/ha (Veronica persica; Veronica persica, 504 h, application rate 5 g/ha, read-out: Veronica persica (efficacy in %)): 100%; pest or weed control at 20 g/ha (Veronica persica; Veronica persica, 504 h, application rate 20 g/ha, read-out: Veronica persica (efficacy in %)): 100%; pest or weed control at 5 g/ha (Viola tricolor; Viola tricolor, 504 h, application rate 5 g/ha, read-out: Viola tricolor (efficacy in %)): 100%; Brassica napus (efficacy in %) (Brassica napus; application rate 1.25 g/ha): 0%; Brassica napus (efficacy in %) (Brassica napus; application rate 5 g/ha): 10%; Glycine max (efficacy in %) (Glycine max; application rate 1.25 g/ha): 0%; Glycine max (efficacy in %) (Glycine max; application rate 5 g/ha): 10%; Oryza sativa (efficacy in %) (Oryza sativa; application rate 5 g/ha): 10%; Zea mays (efficacy in %) (Zea mays): 20%
